Read-outs that look alike come from different tables or passages of the source.

We go through four compounds from PMC5107945, “Abscinazole-E3M, a practical inhibitor of abscisic acid 8′-hydroxylase for improving drought tolerance” (Scientific Reports, 2016).

Data set [1] deals with T1, Arabidopsis recombinant CYP707A3 (ABA 8′-hydroxylase) (Arabidopsis thaliana, UniProt Q9FH76).
T1 construct: made in house; host or cells: Escherichia coli (microsomal/membrane fraction)
T1 sequence (Q9FH76 1-463): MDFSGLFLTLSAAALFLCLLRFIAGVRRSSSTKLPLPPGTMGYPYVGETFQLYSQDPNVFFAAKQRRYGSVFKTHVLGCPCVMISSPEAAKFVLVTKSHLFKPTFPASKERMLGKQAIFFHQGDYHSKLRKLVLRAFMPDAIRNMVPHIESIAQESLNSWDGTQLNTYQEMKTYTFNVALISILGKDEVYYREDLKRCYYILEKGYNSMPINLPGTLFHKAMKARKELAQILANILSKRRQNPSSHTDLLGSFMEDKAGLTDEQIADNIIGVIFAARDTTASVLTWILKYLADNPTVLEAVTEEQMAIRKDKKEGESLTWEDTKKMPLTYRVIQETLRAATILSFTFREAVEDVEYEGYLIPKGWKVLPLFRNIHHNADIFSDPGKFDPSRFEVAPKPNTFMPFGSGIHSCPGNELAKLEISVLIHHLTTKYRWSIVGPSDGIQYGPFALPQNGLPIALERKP
Kind of data set: CYP707A3 inhibition assay (decrease of enzymatic product PA). The data set is classed as biochemical. The following applies: Arabidopsis recombinant CYP707A3 expressed in E. coli; for IC50: 5 μM ABA as substrate, read-out: CYP707A IC50. Here is the method: The inhibitory activities of Abz-T compounds against ABA 8′-hydroxylase were examined using recombinant Arabidopsis CYP707A3 co-expressed with Arabidopsis P-450 reductase (ATR1) in Escherichia coli[22]. The activity levels were evaluated based on the decrease in the amount of the enzymatic product, PA.
Reactions were initiated by adding NADPH, stopped by the addition of 25 μL of 1 M NaOH and then acidified with 50 μL of 1 M HCl. Reaction products were extracted by loading the mixture onto an Oasis HLB cartridge (1 mL, 30 mg; Waters Corp., Milford, MA, USA) and were washed with 1 mL of 10% MeOH in H2O (v/v) containing 1% acetic acid (AcOH, v/v). The enzyme products were then eluted with 1 mL of MeOH containing 1% AcOH, and the eluate was concentrated in vacuo. Each dried sample was then dissolved in 50 μL of MeOH, and a 20-μL volume was subjected to HPLC (Prominence; Shimadzu Corp., Kyoto, Japan). HPLC conditions were as follows: the octadecylsilyl column was composed of Hydrosphere C18 (150 × 6.0 mm, YMC Co., Ltd., Kyoto, Japan), and the solvent comprised 17% acetonitrile (MeCN) in H2O containing 0.05% AcOH (v/v). The flow rate was 1.0 mL min^−1, and detection was at 254 nm. Enzyme activity was evaluated by determining the amount of PA in control experiments prior to taking each set of measurements. The inhibition constants were determined using the Enzyme Kinetics module of the SigmaPlot 10 software (Systat Software, Inc., San Jose, CA, USA) after determining the inhibition mode by plotting the reaction velocity in the presence and absence of the inhibitor on a double-reciprocal plot. The inhibition ratio was defined as [(A − B)/A] × 100, where A = the amount of PA when the inhibitor was absent from the reaction mixture (control), and B = the amount of PA when the inhibitor was present. All of the tests were conducted at least three times.

In data set [2] the target is T2, Rice recombinant CYP701A6 (ent-kaurene oxidase) (Oryza sativa subsp. japonica, UniProt Q5Z5R4).
T2 construct: made in house; host or cells: insect cells (baculovirus vector)
T2 sequence (Q5Z5R4 1-505): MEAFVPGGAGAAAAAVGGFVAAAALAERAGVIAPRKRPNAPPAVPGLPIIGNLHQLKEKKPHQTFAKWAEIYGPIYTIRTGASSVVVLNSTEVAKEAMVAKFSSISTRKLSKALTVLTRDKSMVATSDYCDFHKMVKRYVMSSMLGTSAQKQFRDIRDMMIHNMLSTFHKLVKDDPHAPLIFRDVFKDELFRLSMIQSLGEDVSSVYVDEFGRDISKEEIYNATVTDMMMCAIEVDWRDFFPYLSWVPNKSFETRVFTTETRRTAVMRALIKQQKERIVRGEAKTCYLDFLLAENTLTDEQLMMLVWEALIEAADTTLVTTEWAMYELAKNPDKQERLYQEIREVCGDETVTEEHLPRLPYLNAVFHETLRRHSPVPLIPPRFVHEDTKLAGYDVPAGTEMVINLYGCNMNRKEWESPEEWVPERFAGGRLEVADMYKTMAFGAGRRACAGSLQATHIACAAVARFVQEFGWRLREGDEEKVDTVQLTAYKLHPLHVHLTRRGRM
As to the kind of experiment: CYP701A6 inhibition assay (formation of end product KA). It is filed as biochemical. As for the experimental part:
To evaluate the enzymatic selectivity between CYP707A and CYP701A, we examined the inhibitory activity against recombinant rice containing CYP701A6 expressed in insect cells using a baculovirus vector. This enzyme catalyses all three steps to KA via the corresponding alcohol and aldehyde, and consequently, the kinetic analysis is very complicated. Therefore, we evaluate the IC50 value for the formation of the end product, KA, instead of the KI value.
Reaction mixtures, containing 0.058 μM of […] microsomes, ATR2 (0.115 U), ent-kaurene (final concentration of 10 μM), inhibitors (0 for control, 1.5–1,500 μM in 8 μL dimethylformamide), and 20 mM NADPH in 500 mM potassium phosphate buffer (pH 7.4), were incubated at 30 °C for 10 min. Reactions were initiated by adding NADPH and stopped by the addition of 100 μL of 1 M HCl. Abietic acid, as the internal standard, was then added to the reaction product, which was extracted with EtOAc (400 μL × 3). The organic phase was dried over Na2SO4 and concentrated in vacuo. To derivatize the reaction products, MeOH (50 μL) and trimethylsilyldiazomethane (2 M in 5 μL hexane) were added, and the reaction mixture was incubated at room temperature for 10 min. The organic solvent was removed under N2, and samples were adjusted to 150 μL with hexane before a gas chromatography-mass spectrometry analysis (QP2010-plus; Shimadzu Corp., Kyoto, Japan). The conditions were as follows: the column was DB-5ms (0.25 mm id × 15 m, 0.25 μm film thickness; Agilent J & W, Folsom, CA, USA), the carrier gas was He, the flow rate was 1.65 mL min^−1, the injection port temperature was 280 °C, splitless injection, and the programmed column temperature was a step gradient of 80 °C for 1 min, 80–200 °C at 18 °C min^−1, 200–210 °C at 2 °C min^−1, 210–280 °C at 30 °C min^−1, and then 280 °C for 3 min. The KA content was calculated from the area ratio of molecular and fragment ions of methyl KA (m/z 316, 273, and 257) to those of methyl abietate (m/z 316 and 256). The inhibition ratio was defined as [(A − B)/A] × 100, where A = the amount of methyl KA/methyl abietate when the inhibitor was absent from the reaction mixture (control), and B = the amount of methyl KA/methyl abietate when the inhibitor was present. All of the tests were conducted at least three times.

Data set [3] deals with ABA-responsive genes MAPKKK18, RD29A and RD29B. Kind of data set: qRT-PCR of ABA-responsive genes in Arabidopsis seedlings. The settings on record: 10-day-old seedlings, 6 h. The data set is classed as in vivo, Arabidopsis (Columbia accession). As for the experimental part: Figure 5 Effects of (−)-Abz-E3M on the expression levels of Arabidopsis ABA-responsive genes. Expression of MAPKKK18, RD29A and RD29B after treatment with (−)-Abz-E2B or (−)-Abz-E3M in the absence or presence of 0.25 μM ABA (n = 4, error bar represents s.d.).
Arabidopsis (Columbia accession) were grown for 10 d on agar plates containing 1/2 Murashige and Skoog (MS) and 0.5% sucrose at 22 °C under an 18/6-h light/dark cycle. Seedlings were incubated in the chemical solutions for 6 h. Total RNA from seedlings was isolated using the Plant RNA purification reagent (Thermo Fisher Scientific) according to the manufacturer’s instructions. cDNA was synthesised using the QuantiTec reverse transcription kit (Qiagen). Maize (cv. Gold rush, Sakata Seed Corporation) seedlings were grown in 100-mL pots containing 75 g of moist soil in a glass house. The root parts of the maize seedlings were washed with tap water and dipped in 100 μM (−)-Abz-E3M chemical solution containing 0.05% Tween-20 overnight. Total RNA from maize seedlings was isolated using an RNeasy mini kit (Qiagen) with the ‘on-column’ DNA digestion method. cDNA was synthesised using a High-Capacity cDNA Reverse Transcription Kit (Thermo Fisher Scientific). Real-time PCR using SYBR Premix Ex Taq™ II (Takara) was performed with Step One-Plus (Thermo Fisher Scientific). The primer sets are shown in Supplemental Table S1.

The next data set concerns rice seedling growth. As to the kind of experiment: Rice seedling elongation assay. The data set is classed as in vivo, Oryza sativa L. cv. Nipponbare. The settings on record: 0.3 μM; 7 d. As for the experimental part: The effects of (−)-Abz-T compounds were also tested on the early growth of rice seedlings to investigate whether the plant growth-retardant effect derived from UNI declined. […] This was the same trend observed for (−)-Abz-E2B[26]. […] Thus, the growth-retardant effects of (−)-Abz-T compounds may arise from an increase in the endogenous ABA level due to the CYP707A inhibition, although we cannot exclude the possibility that Abz-T compounds may inhibit off-target enzymes other than CYP707A and CYP701A.
Figure 4 Effects of (−)-Abz-T compounds on rice seedling growth compared with the effects of UNI and (−)-Abz-E2B. Seedlings grown on test media containing indicated concentrations of azole inhibitors for 7 d. Scale bars represent 10 mm. Compound 6 is also referred to as Abz-E3M.
For the rice seedling elongation assay, seven seeds (Oryza sativa L. cv. Nipponbare) were sterilised with reagent-grade EtOH for 5 min and washed with running tap water. They were then soaked in distilled water and incubated under continuous illumination at 25 °C for 3 d to germinate. The germinated seeds were then soaked in 2 mL of a test medium in a glass tube and grown under continuous illumination at 25 °C. When the seedlings were 7 d old, the length of the second leaf sheath was measured. All of the assays were conducted at least three times.

The mark [4] stands for this setting: Rice recombinant CYP701A6 expressed in insect cells, 10 μM ent-kaurene, formation of KA, read-out: CYP701A IC50.

The IC50 is the point on the concentration scale where inhibition reaches its midpoint. As to “abscinazole-E2B [(+)-Abz-E2B, reference compound]”, the IC50 was determined as 1.1 µM in data set [1] and 1.3 µM in data set [2] (setting [4]).

In the case of abscinazole-E3M [(+)-6], the IC50 in data set [1] was found to be 1.2 µM; in data set [2] (setting [4]) it was 1.6 µM.

The Ki is a dissociation constant, usually derived from enzyme kinetics or from competition with a known ligand. In the case of “abscinazole-E2B [(−)-Abz-E2B, reference compound]”, the IC50 amounted to 0.054 µM in data set [1] and 1.2 µM in data set [2] (setting [4]). The Ki in data set [1] (ABA 1–64 μM, read-out: CYP707A KI) came to 0.038 µM. Further, the “Expression of ABA-responsive genes MAPKKK18, RD29A and RD29B” value in data set [3] (absence of exogenous ABA) is recorded as “did not induce the expression”; in data set [3] (co-treatment with 0.25 μM ABA), “enhanced the expression levels of ABA-responsive genes”.

As for `CC(C)(C)[C@H](O)/C(=C\c1ccc(Cl)cc1)n1cncn1` [UNI, S-uniconazole, reference compound], in data set [2], the IC50 came out at 0.057 µM. Moreover, the “Effect on elongation of rice seedlings” value in the data set with rice seedling growth was “strongly inhibited the elongation of rice seedlings”.
